These results are taken from US20260365653A1, “IRREVERSIBLE MUTEGFR INHIBITORS” (Bayer Aktiengesellschaft, priority 2022, published 2026).

Experiment [1] deals with T1, mutEGFR (D770_N771insSVD) (Homo sapiens, UniProt P00533, DUP768-770).
T1 construct: GST-EGFR #3 (SVD between D770 and N771); made in house; host or cells: Sf9 insect cells (baculovirus)
Put plainly: Exon20-Mutant-EGFR (D770_N771insSVD) kinase assay (TR-FRET). It counts as biochemical. Conditions: mutEGFR (D770_N771insSVD) kinase assay IC50, Table 2a; D770_N771insSVD; 2 mM ATP. For orientation: In TR-FRET formats the signal depends on donor and acceptor labels being close together.

Experiment [2] concerns the target T2, mutEGFR (D770_N771insNPG, T790) (Homo sapiens, UniProt P00533, INS770NPG/T790M).
T2 construct: exact insNPG construct not described; in-house EGFR proteins were N-terminal GST fusions from baculovirus/insect cells (borders R669-A1210 given only for WT, insSVD, insASV)
Put plainly: mutEGFR (D770_N771insNPG, T790) kinase assay. It counts as biochemical. Conditions: Table 2a, D770_N771insNPG. An excerpt:
The different EGFR proteins used in the biochemical kinase activity inhibition assays were generated inhouse by expression in insect cells using Baculo Virus system and subsequent purification as described in the following paragraphs.
The cDNAs encoding the various protein sequences from human EGFR human (P00533) were optimized for expression in eukaryotic cells and synthesized by the GeneArt Technology at Life Technologies.

In another experiment the test system is BA/F3 (insSVD) cells. Put plainly: Ba/F3-EGFR-insSVD cell survival assay (Cell Titer-Glo). To be noted: Table 3a, cell survival, Cell Titer-Glo, with 10 ng/ml EGF, without IL-3. It counts as cell-based. The essentials: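 CellTiter-Glo luminescence read after 48 h compound exposure at 37° C. Cells: IL-3-independent Ba/F3 lines transduced with EGFR-insSVD or EGFR-insSVD T790M, maintained on 10 ng/ml EGF and seeded at 4000 per well.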
A general note: Cellular ATP, detected with luciferase, serves as a proxy for viable cell number.

pIC50: −log10 of the molar value.

T2 sequence (P00533 with tags, fused parts or gaps INS770NPG/T790M limits assumed): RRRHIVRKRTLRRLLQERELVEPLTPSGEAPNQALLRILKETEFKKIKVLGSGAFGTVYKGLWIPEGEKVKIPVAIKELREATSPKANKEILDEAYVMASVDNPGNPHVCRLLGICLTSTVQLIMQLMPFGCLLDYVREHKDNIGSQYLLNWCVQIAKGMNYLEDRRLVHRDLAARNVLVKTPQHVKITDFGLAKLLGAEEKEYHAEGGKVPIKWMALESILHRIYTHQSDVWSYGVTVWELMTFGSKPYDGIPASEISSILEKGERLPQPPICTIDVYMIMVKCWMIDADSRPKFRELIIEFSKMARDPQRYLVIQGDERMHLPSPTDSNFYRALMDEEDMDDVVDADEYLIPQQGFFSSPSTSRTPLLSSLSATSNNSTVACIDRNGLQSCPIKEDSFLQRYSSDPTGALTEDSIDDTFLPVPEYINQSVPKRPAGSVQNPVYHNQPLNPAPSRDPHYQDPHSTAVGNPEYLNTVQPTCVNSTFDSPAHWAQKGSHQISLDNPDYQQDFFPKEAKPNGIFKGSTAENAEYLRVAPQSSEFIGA
T1 sequence (P00533 with tags, fused parts or gaps DUP768-770): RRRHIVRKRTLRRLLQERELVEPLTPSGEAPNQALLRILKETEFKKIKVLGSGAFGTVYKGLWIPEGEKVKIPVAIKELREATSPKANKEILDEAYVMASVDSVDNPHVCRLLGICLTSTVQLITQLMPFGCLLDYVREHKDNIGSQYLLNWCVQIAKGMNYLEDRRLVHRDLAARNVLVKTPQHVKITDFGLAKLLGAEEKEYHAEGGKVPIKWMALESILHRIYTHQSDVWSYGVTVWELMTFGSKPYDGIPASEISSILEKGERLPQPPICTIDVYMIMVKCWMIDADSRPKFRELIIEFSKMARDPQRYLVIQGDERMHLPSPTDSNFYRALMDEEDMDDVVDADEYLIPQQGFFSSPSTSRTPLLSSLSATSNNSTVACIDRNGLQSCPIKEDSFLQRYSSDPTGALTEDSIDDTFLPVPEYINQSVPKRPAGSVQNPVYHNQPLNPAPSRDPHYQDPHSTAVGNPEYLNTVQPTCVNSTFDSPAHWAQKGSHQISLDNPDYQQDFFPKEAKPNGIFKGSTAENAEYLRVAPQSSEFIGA

`C=CC(=O)N1Cc2c(-c3ccncc3)c(-c3ccc4sccc4c3)nn2C[C@@H]1C` [Example 276, 1-[(6S)-2-(1-benzothiophen-5-yl)-6-methyl-3-(pyridin-4-yl)-6,7-dihydropyrazolo[1,5-a]pyrazin-5(4H)-yl]prop-2-en-1-one]: the pIC50 in experiment [1] was 10.04; in experiment [2], 9.80; in the experiment on BA/F3 (insSVD) cells (Mus musculus, BaF3, 48 h) it was 8.21.
In the case of `C=CC(=O)N1Cc2c(-c3ccnc4[nH]cc(C)c34)c(-c3ccc(C(F)(F)F)cc3)nn2C[C@H]1C` [Example 260, 1-[(6R)-6-methyl-3-(3-methyl-1H-pyrrolo[2,3-b]pyridin-4-yl)-2-[4-(trifluoromethyl)phenyl]-6,7-dihydropyrazolo[1,5-a]pyrazin-5(4H)-yl]prop-2-en-1-one], the pIC50 in experiment [1] was 7.08; in experiment [2], 5.89; in the experiment on BA/F3 (insSVD) cells (Mus musculus, BaF3, 48 h) it was 7.00.
The like results for `CN(C)C/C=C/C(=O)N1CCn2nc(Nc3ccccc3)c(-c3ccncc3)c2C1` [Example 273, (2E)-1-[2-anilino-3-(pyridin-4-yl)-6,7-dihydropyrazolo[1,5-a]pyrazin-5(4H)-yl]-4-(dimethylamino)but-2-en-1-one] were, in that order, 8.40, 7.67 and 6.27.
On to `C=CC(=O)N1Cc2c(-c3ccncc3)c(-c3ccc(OC)cc3)nn2C(C)C1` (single isomer, unassigned; isomer 1) [Example 274, 1-[2-(4-methoxyphenyl)-7-methyl-3-(pyridin-4-yl)-6,7-dihydropyrazolo[1,5-a]pyrazin-5(4H)-yl]prop-2-en-1-one (isomer 1)], for which the pIC50 was 8.87 in experiment [1], 8.51 in experiment [2] and 7.47 with BA/F3 (insSVD) cells (48 h).
With `C=CC(=O)N1CCn2nc(-c3ccc(Cl)cc3OC)c(-c3ccncc3)c2C1` [Example 116, 1-[2-(4-chloro-2-methoxyphenyl)-3-(pyridin-4-yl)-6,7-dihydropyrazolo[1,5-a]pyrazin-5(4H)-yl]prop-2-en-1-one], the pIC50 is 8.08 in experiment [1]; 7.94 in experiment [2]; 6.20 in the experiment on BA/F3 (insSVD) cells (Mus musculus, BaF3, 48 h).
As for `CC1Cn2nc(-c3ccc(Cl)cc3F)c(-c3ccncc3)c2CN1C(=O)/C=C/CN(C)C` (racemic) [Example 235, (2E)-1-[(RS)-2-(4-chloro-2-fluorophenyl)-6-methyl-3-(pyridin-4-yl)-6,7-dihydropyrazolo[1,5-a]pyrazin-5(4H)-yl]-4-(dimethylamino)but-2-en-1-one], the pIC50 in experiment [1] was 9.74; in experiment [2] it was 9.23; with BA/F3 (insSVD) cells (Mus musculus, BaF3, 48 h), 7.62.
Turning to `CN(C)C/C=C/C(=O)N1CCn2nc(-c3ccc(OC(F)F)cc3)c(-c3ccncc3)c2C1` [Example 144, (2E)-1-{2-[4-(difluoromethoxy)phenyl]-3-(pyridin-4-yl)-6,7-dihydropyrazolo[1,5-a]pyrazin-5(4H)-yl}-4-(dimethylamino)but-2-en-1-one], the pIC50 in experiment [1] was 8.06; in experiment [2], 7.51; in the experiment on BA/F3 (insSVD) cells (Mus musculus, BaF3, 48 h), 5.83.
`C=CC(=O)N1Cc2c(-c3ccncc3)c(-c3ccc(Cl)cc3F)nn2C[C@@H]1C` [Example 270, 1-[(6S)-2-(4-chloro-2-fluorophenyl)-6-methyl-3-(pyridin-4-yl)-6,7-dihydropyrazolo[1,5-a]pyrazin-5(4H)-yl]prop-2-en-1-one]: the pIC50 in experiment [1] is 9.67; in experiment [2] it was 8.99; in the experiment on BA/F3 (insSVD) cells (Mus musculus, BaF3, 48 h) it was 7.94.
The like results for `C=CC(=O)N1CCn2nc(-c3ccc(OC)cc3)c(-c3ccncc3)c2C1` [Example 41, 1-[2-(4-methoxyphenyl)-3-(pyridin-4-yl)-6,7-dihydropyrazolo[1,5-a]pyrazin-5(4H)-yl]prop-2-en-1-one] were, in that order, 8.96, 8.49 and 7.43.
As for `C=CC(=O)N1CCn2nc(-c3ccc(Cl)cc3F)c(-c3ccncc3)c2C1C` (racemic) [Example 240, 1-[(RS)-2-(4-chloro-2-fluorophenyl)-4-methyl-3-(pyridin-4-yl)-6,7-dihydropyrazolo[1,5-a]pyrazin-5(4H)-yl]prop-2-en-1-one], the pIC50 in experiment [1] is 9.36; in experiment [2], 8.82; in the experiment on BA/F3 (insSVD) cells (Mus musculus, BaF3, 48 h), 7.27.

The pIC50 is −log10 of the IC50, conventionally taken in molar units.
